In patent US6440991B1, “Ethers of 7-desmethlrapamycin” (Wyeth, priority 2000, dated 2002):
In brackets after ≈: the same amount, converted by molar mass.

Legend:
Assay type in all cases: cell-based
Aspergillus fumigatus = test: Antifungal activity, microtiter broth dilution MIC; settings: Aspergillus fumigatus strain ATCC 26933; RPMI 1640, 35° C., 24-48 hours
Protocol: (§1) The antifungal activity for the ethers of 7-desmethylrapamycin of this invention was confirmed in a standard pharmacological test procedure which measured the ability of the compound being evaluated to inhibit fungal growth. 42-O-(2-Hydroxy)ethyl 7-desmethylrapamycin […] (Compound I) was evaluated as a representative compound of this invention. The procedure used and results obtained are briefly described below. A 96 U-bottom microtiter plate was filled (50 μl/well) with RPMI 1640. The compounds to be evaluated were placed in appropriate wells, and serial diluted in successive wells to provide 11 dilutions. The concentrations ranged from 64 through 0.06 μug/ml. An adjusted inoculum of fungi (50 μl) was added to each well and the plates were incubated at 35° C. for 24-48 hours. […] Nystatin and amphotericin B were used for the purpose of comparison.

Aspergillus niger = test: Antifungal activity, microtiter broth dilution MIC; settings: RPMI 1640, 35° C., 24-48 hours
Protocol: as §1

Candida albicans = test: Antifungal activity, microtiter broth dilution MIC; settings: RPMI 1640, 35° C., 24-48 hours
Protocol: as §1

Candida krussii = test: Antifungal activity, microtiter broth dilution MIC; settings: Candida krussii strain 94-2; RPMI 1640, 35° C., 24-48 hours
Protocol: as §1

Candida lusitaniae = test: Antifungal activity, microtiter broth dilution MIC; settings: Candida lusitaniae strain 94-3; RPMI 1640, 35° C., 24-48 hours
Protocol: as §1

Candida parapsilosis = test: Antifungal activity, microtiter broth dilution MIC; settings: RPMI 1640, 35° C., 24-48 hours
Protocol: as §1

Candida pseudotropicalis = test: Antifungal activity, microtiter broth dilution MIC; settings: Candida pseudotropicalis strain ATCC 28838; RPMI 1640, 35° C., 24-48 hours
Protocol: as §1

Candida rugosa = test: Antifungal activity, microtiter broth dilution MIC; settings: Candida rugosa strain 94-10; RPMI 1640, 35° C., 24-48 hours
Protocol: as §1

Candida tropicalis = test: Antifungal activity, microtiter broth dilution MIC; settings: RPMI 1640, 35° C., 24-48 hours
Protocol: as §1

[1] = test system: U87MG human glioblastoma cells; test: Inhibition of U87MG human glioblastoma cell growth (3H-thymidine incorporation); settings: 48 hours incubation with compound
Protocol: The antineoplastic activity of the compounds of this invention were confirmed in a standard pharmacological test procedure which measures the inhibition of U87MG human glioblastoma cell growth (as a function of ^3H-thymidine incorporation), using 42-O-(2-hydroxy)ethyl 7-desmethylrapamycin (Compound I) as a representative compound of this invention. The following briefly describes the procedure used and results obtained. U87MG human glioblastoma cells (ATCC # HTB-14; available from the American Type Culture Collection; 10801 University Boulevard; Manassas, Va. 20110;), were grown in the following media.
Growth Medium: BRL Minimum Essential Medium with Earle Salts (500 mL)
+5 mL BRL MEM Non-Essential Amino Acids (10 mM)
+5 mL BRL Penicillin-Streptomycin (1 0000u/mL,1 0000 μg/mL)
+5 mL BRL Na Pyruvate Solution (100 mM)
+5 mL BRL L-Glutamine 200 mM
+50 mL BRL Fetal Bovine Serum (Qualified)
1. Cells were trypsinized and plated at a concentration of 10^4 cells/well in a final volume of 200 μL growth medium in 96-well flat bottom plates and allowed to adhere for 24 hours at 37° C.
2. The media was removed by aspiration with care to not disturb the cell monolayer. 200 μL of fresh growth media was added per well, allowing enough wells for samples to be run in triplicate. […]
4. […] Mats were counted in a Wallac Betaplate counter.

[2] = Candida albicans strain ATCC 90028
[3] = Candida parapsilosis strain 94-8
[4] = Candida parapsilosis strain 94-9
[5] = Candida parapsilosis strain ATCC 90018
[6] = Candida tropicalis strain 94-13
[7] = Candida tropicalis strain 94-14

Compound	ANTIFUNGAL ACTIVITY (MIC) (Aspergillus fumigatus) [µg/mL]	ANTIFUNGAL ACTIVITY (MIC) (Aspergillus niger; Aspergillus niger strain S399) [µg/mL]	ANTIFUNGAL ACTIVITY (MIC) (Aspergillus niger; Aspergillus niger strain S430) [µg/mL]	ANTIFUNGAL ACTIVITY (MIC) (Candida albicans; Candida albicans strain 1063)	ANTIFUNGAL ACTIVITY (MIC) (Candida albicans; Candida albicans strain 1117) [µg/mL]	ANTIFUNGAL ACTIVITY (MIC) (Candida albicans; [2]) [µg/mL]	ANTIFUNGAL ACTIVITY (MIC) (Candida krussii) [µg/mL]	ANTIFUNGAL ACTIVITY (MIC) (Candida lusitaniae)	ANTIFUNGAL ACTIVITY (MIC) (Candida parapsilosis; [3])	ANTIFUNGAL ACTIVITY (MIC) (Candida parapsilosis; [4]) [µg/mL]	ANTIFUNGAL ACTIVITY (MIC) (Candida parapsilosis; [5])	ANTIFUNGAL ACTIVITY (MIC) (Candida pseudotropicalis)	ANTIFUNGAL ACTIVITY (MIC) (Candida rugosa) [µg/mL]	ANTIFUNGAL ACTIVITY (MIC) (Candida tropicalis; [6])	ANTIFUNGAL ACTIVITY (MIC) (Candida tropicalis; [7])	IC50 [1] [µg/mL]
C[C@@H]1[C@H](O)[C@@H](C)/C=C/C=C/C=C/C=C/C=C/C=C/C=C/[C@H](O[C@@H]2O[C@H](C)[C@@H](O)[C@H](N)[C@@H]2O)C[C@@H]2O[C@](O)(C[C@@H](O)C[C@@H](O)[C@H](O)CC[C@@H](O)C[C@@H](O)CC(=O)O[C@H]1C)C[C@H](O)[C@H]2C(=O)O [Amphotericin B, amphotericin B]	0.25	0.50	0.25	≦0.06 μg/mL	0.12	0.12	0.12	≦0.06 μg/mL	≦0.06 μg/mL	0.12	≦0.06 μg/mL	≦0.06 μg/mL	0.25	≦0.06 μg/mL	≦0.06 μg/mL	
CO[C@@H]1C[C@H](C[C@@H](C)[C@@H]2CC(=O)[C@H](C)/C=C(\C)[C@@H](O)[C@@H](OC)C(=O)[C@H](C)C[C@H](C)/C=C/C=C/C=C(\C)[C@@H](O)C[C@@H]3CC[C@@H](C)[C@@](O)(O3)C(=O)C(=O)N3CCCC[C@H]3C(=O)O2)CC[C@H]1OCCO [Compound I, 42-O-(2-Hydroxy)ethyl 7-desmethyirapamycin]	64	64	64	1 µg/mL	2	2	0.5	1 µg/mL	2 µg/mL	2	2 µg/mL	2 µg/mL	1	0.5 µg/mL	0.5 µg/mL	0.0035 (≈ 3.71 nM)
C[C@@H]1[C@H](O)[C@@H](C)/C=C/C=C/CC/C=C/C=C/C=C/C=C/C(O[C@H]2O[C@H](C)[C@@H](O)[C@H](N)[C@@H]2O)CC2O[C@](O)(CC(O)C(O)CCC(O)CC(O)CC(O)CC(=O)O[C@H]1C)CC(O)C2C(=O)O (stereo partly shown) [Nystatin]	2	2	1	1 µg/mL	1	1	1	1 µg/mL	2 µg/mL	1	2 µg/mL	1 µg/mL	1	1 µg/mL	1 µg/mL	
